Data on 15 molecules can be found in patent publication US20250340848A1, “METHODS FOR CHEMICAL REPROGRAMMING AND PLURIPOTENT STEM CELLS” (Peking University, priority 2022, published 2025).

This experiment deals with hADSCs. Nature of the experiment: Three-stage conversion of hADSCs into hCiPSCs (methods of EXAMPLE 1), numbers of hCiPSC colonies. In kind it is cell-based, human. An excerpt: FIG. 1 illustrates a schematic of an exemplary method for converting human somatic cells into pluripotent stem cells. The method has 3 stages. During any of the 3 stages, any cell can proliferate and give rise to progeny cells. In stage 1, a first population of cells comprising somatic cells are contacted with a first composition for about 4-12 days. The first population of cells can comprise somatic cells (e.g., fibroblasts or primary human adult adipose derived mesenchymal stromal cells (hADSCs)). During and/or subsequent to contacting the first composition, at least a subset of the cells of the first population of cells or the progenies thereof are converted into a second population of cells. The second population of cells can comprise epithelial-like cells. In stage 2, the second population of cells or the progenies thereof are then contacted with a second composition for about 4-16 days. During and/or subsequent to contacting the second composition, at least a subset of the cells of the second population of cells or the progenies thereof are converted into a third population of cells. The third population of cells can comprise intermediate plastic state cells. In stage 3, the third population of cells or the progenies thereof are contacted with a third composition for about 6-12 days. During and/or subsequent to contacting the third composition, at least a subset of the cells of the third population of cells or the progenies thereof are converted into a fourth population of cells.
FIG. 2 illustrates a schematic of an exemplary method for converting human fibroblasts into pluripotent stem cells. The method can comprise 3 stages. During any of the 3 stages, any cell can proliferate and give rise to progeny cells. In stage 1, a first population of cells comprising fibroblasts is contacted with a first composition for about 8-10 days. During and/or subsequent to contacting the first composition, at least a subset of the cells of the first population of cells or the progenies thereof are converted into a second population of cells. The second population of cells can comprise epithelial-like cells. The epithelial-like cells express an increased amount of LIN28A, relative to the first population of cells or their progenies. In stage 2, the second population of cells or the progenies thereof are then contacted with a second composition for about 12-16 days. During and/or subsequent to contacting the second composition, at least a subset of the cells of the second population of cells or the progenies thereof are converted into a third population of cells. The third population of cells can comprise intermediate plastic state cells. The intermediate plastic state cells express both SALL4 and LIN28A. In stage 3, the third population of cells or the progenies thereof are contacted with a third composition for about 8-10 days. During and/or subsequent to contacting the third composition, at least a subset of the cells of the third population of cells or the progenies thereof are converted into a fourth population of cells. […] The second conversion medium can then be removed from the cells. […] The third stage 3 medium may allow the pluripotent stem cells or the progenies thereof to proliferate.
In one experiment, when converting hCiPSCs from somatic cell (e.g., hADSCs), hypoxia with 5% O2 was used in stage 1 conversion. After stage 1 conversion, cells were incubated with 21% O2. The induction medium was changed every 3-4 days. hADSCs were seeded at a density of 1×10^4 cells per well of a 12-well plate in 15% FBS-DMEM medium and would be changed into stage 1 conversion medium the next day. For stage 1 conversion, single layer epithelial-like cells induced from hADSCs would emerge at day 4-6 and approach 100% confluence at day 8-12. Then the medium was changed into stage 2 conversion medium. […]

[1] abbreviates: factor removed from the stage 2 conversion medium, FIG. 17.
[2] abbreviates: factor removed from the stage 1 conversion medium, FIG. 4.
Where [3] appears, read: various combinations supplemented to stage 1 conversion medium comprising CHIR99021, 616452, TTNPB and AKT Kinase Inhibitor, FIG. 5.
The mark [4] stands for this setting: factor removed from the stage 3 conversion medium, FIG. 19.

As to `Nc1ncnc2c1c(I)cn2[C@@H]1O[C@H](CO)[C@@H](O)[C@H]1O` [5-ITU, (2R,3R,4S,5R)-2-(4-amino-5-iodopyrrolo[2,3-d]pyrimidin-7-yl)-5-(hydroxymethyl)oxolane-3,4-diol], the “increase of the numbers of converted hCiPSCs” value (added to the stage 2 conversion medium, relative to medium without it, FIGS. 7A-7B) is “more than 5 fold”. For the same molecule, the “numbers of converted hCiPSCs” value under setting [1] is listed as “minimal numbers of converted hCiPSCs”. For `Cc1cnc(-c2cnc(NCCNc3ccc(C#N)cn3)nc2-c2ccc(Cl)cc2Cl)[nH]1` [CHIR99021, 6-[[2-[[4-(2,4-Dichlorophenyl)-5-(5-methyl-1H-imidazol-2-yl)-2-pyrimidinyl]amino]ethyl]amino]-3-pyridinecarbonitrile], the “numbers of converted hCiPSCs” value is on record as “minimal numbers of converted hCiPSCs” under setting [2] and “minimal numbers of converted hCiPSCs” under setting [1]. In the case of `O=C(O)c1ccc2c(c1)nc(Nc1cccc(Cl)c1)c1ccncc12` [CX-4945, 5-(3-chloroanilino)benzo[c][2,6]naphthyridine-8-carboxylic acid], the reprogramming efficiency result (AKTi and CX4945 included in the stage 2 conversion medium (Base), FIG. 18) is listed as “significantly improved the reprogramming efficiency”.

Turning to `Nc1nccc2c1ncn2[C@@H]1C=C(CO)[C@@H](O)[C@H]1O` [DZNep, (1S,2R,5R)-5-(4-Amino-1H-imidazo[4,5-c]pyridin-1-yl)-3-(hydroxymethyl)-3-cyclopentene-1,2-diol], the “numbers of converted hCiPSCs” value is “minimal numbers of converted hCiPSCs” under setting [1] and “significantly increase the numbers of converted hCiPSCs” under setting [3]. With `CC(C)N(C[C@H]1O[C@@H](n2cnc3c(N)ncnc32)[C@H](O)[C@@H]1O)[C@H]1C[C@@H](CCc2nc3cc(C(C)(C)C)ccc3[nH]2)C1` [EPZ5676, (2R,3R,4S,5R)-2-(6-amino-9H-purin-9-yl)-5-((((1r,3S)-3-(2-(5-(tert-butyl)-1H-benzo[d]imidazol-2-yl)ethyl)cyclobutyl)(isopropyl)amino)methyl)tetrahydrofuran-3,4-diol], the “numbers of converted hCiPSCs” value is recorded as “reduced the numbers of converted hCiPSCs” under setting [1] and “significantly increase the numbers of converted hCiPSCs” under setting [3]. In the case of `Cc1cc(NC(=O)c2cccc(NC(=O)/C=C/CN(C)C)c2)ccc1Nc1nccc(-c2cccnc2)n1` [JNKIN8, 3-[[(E)-4-(dimethylamino)but-2-enoyl]amino]-N-[3-methyl-4-[(4-pyridin-3-ylpyrimidin-2-yl)amino]phenyl]benzamide], the “numbers of converted hCiPSCs” value under setting [1] was “minimal numbers of converted hCiPSCs”. Turning to `O=C(NOC[C@H](O)CO)c1ccc(F)c(F)c1Nc1ccc(I)cc1F` [PD0325901], the “numbers of converted hCiPSCs” value under setting [4] is on record as “minimal numbers of converted hCiPSCs”. In the case of `N#CC[C@H](C1CCCC1)n1cc(-c2ncnc3[nH]ccc23)cn1` [Ruxolitinib, (3R)-3-cyclopentyl-3-[4-(7H-pyrrolo[2,3-d]pyrimidin-4-yl)pyrazol-1-yl]propanenitrile], the “numbers of converted hCiPSCs” value under setting [3] is “significantly increase the numbers of converted hCiPSCs”. With `CNC1CCC(N(Cc2cccc(-c3ccncc3)c2)C(=O)c2sc3ccccc3c2Cl)CC1.Cl` (stereo not drawn) [SAG, 3-chloro-N-[4-(methylamino)cyclohexyl]-N-[(3-pyridin-4-ylphenyl)methyl]-1-benzothiophene-2-carboxamide;hydrochloride], the “numbers of converted hCiPSCs” value under setting [3] was “significantly increase the numbers of converted hCiPSCs”.

Consider `CN(C)CCOc1ccc(-c2nc(-c3ccc4c(c3)CCC4=NO)c(-c3ccncc3)[nH]2)cc1` [SB590885, 5-[2-[4-[2-(Dimethylamino)ethoxy]phenyl]-5-(4-pyridinyl)-1H-imidazol-4-yl]-2,3-dihydro-1H-inden-1-one oxime], for which, under setting [4], the “numbers of converted hCiPSCs” value was “minimal numbers of converted hCiPSCs”. Consider `CC(=O)N1CCN([C@H]2CCC[C@@H](NC(=O)c3cc4c(F)ccc(C)c4[nH]3)C2)CC1.O=C(O)C(F)(F)F` [SETD2-IN-1, N-[(1R,3S)-3-(4-acetylpiperazin-1-yl)cyclohexyl]-4-fluoro-7-methyl-1H-indole-2-carboxamide;2,2,2-trifluoroacetic acid], for which, under “supplemented to the stage 1 conversion medium, FIG. 6”, the “numbers of converted hCiPSCs” value is listed as “significantly increased the numbers of converted hCiPSCs”. As to `COc1ccc(CCc2nc3cc(-c4c(C)noc4C)ccc3n2C[C@H](C)N2CCOCC2)cc1Cl` [SGC-CBP30, 2-[2-(3-chloro-4-methoxyphenyl)ethyl]-5-(3,5-dimethyl-4-isoxazolyl)-1-[(2S)-2-(4-morpholinyl)propyl]-1H-benzimidazole], the “numbers of converted hCiPSCs” value under setting [1] is “minimal numbers of converted hCiPSCs”. For the molecule `C/C(=C\c1ccc(C(=O)O)cc1)c1ccc2c(c1)C(C)(C)CCC2(C)C` [TTNPB, 4-[(E)-2-(5,6,7,8-Tetrahydro-5,5,8,8-tetramethyl-2-naphthalenyl)-1-propenyl]benzoic acid], the “numbers of converted hCiPSCs” value is “minimal numbers of converted hCiPSCs” under setting [2] and “minimal numbers of converted hCiPSCs” under setting [1].

As to `CCCC(CCC)C(=O)O` [VPA, valproic acid], the “numbers of converted hCiPSCs” value under setting [4] was “minimal numbers of converted hCiPSCs”. `Cc1cccc(-c2n[nH]cc2-c2ccc3ncccc3n2)n1` [compound 616452, 2-(3-(6-Methylpyridin-2-yl)-1H-pyrazol-4-yl)-1,5-naphthyridine]: the “numbers of converted hCiPSCs” value by setting is: under setting [2], “minimal numbers of converted hCiPSCs”; under setting [1], “minimal numbers of converted hCiPSCs”.
